# Measurements: patent US20060014709A1, “Drug or cosmetic” (priority 2002, published 2006)
# “And” between values parts separate entries of the source, which are not always exact repeats. Equal entries are not always repeated. “Also recorded” adds a separate entry of the source. Marks after values point to notes of the source that are not given here.
# Tests used:
# [1] = tested on: male SD rats, obstruction-released kidney (glomerular lesions and tubulointerstitial lesions); experiment: Obstruction release model after complete obstruction of unilateral ureter for 14 days (Example 2-1); type: in vivo; design: key to Tubulointerstitial lesions: level of lesions (quality): summed lesion score: + = 1, ++ = 2, +++ = 3 points; details: rat
# Source text: That is, the rat was laparotomized under anesthesia with ether and left ureter was ligated with 7-0 Nylon at the height of the margin of lower pole of kidney to close the abdomen. On the 14th day after obstruction, the obstruction was released and urinary passage was reconstructed using a cuff. Thus, after 14 days, the part of ligated obstructed ureter was resected, a polyethylene tube of 25 gages (manufactured by Nippon Sherwood) was used as a cuff and inserted into and retained at the lumen from the cut end of the lower normal ureter, then the cuff was also retained in the expanded upper ureter and each of them was ligated and fixed by 7-0 Nylon to reconstruct the urinary passage. At the same time, the right kidney at the opposite side was excised. After the release of the obstruction, body weight was measured, blood was drawn on the 2nd day, 5th day and 7th day from the release to measure serum creatinine, then the rat was killed under anesthesia and the left obstruction-released kidney was excised.
# With regard to the excised kidney, there were carried out measurements of weight of the kidney, creatinine concentration mg/dl in plasma as an indicator of kidney function and pathological test for the kidney, and also leukocyte cells which infiltrate the obstruction-released kidney were immunopathologically studied with cell surface markers for ED1 macrophages, CD11b (ED8) positive macrophages and CD5 positive lymphocytes. A number of positive cells was expressed as a number of cells per glomerulus from measured numbers of positive cells in five glomeruli, and for a number in tubulointerstitial tissue, it was expressed by the total number of cells existing in five fields of 200×magnification. For macrophages, a number of CD11b positive cells existing in glomerulus was considered as a number of CD11b^+CD2^+ macrophages and a case of existing not less than one positive cell per glomerulus was considered as positive (+). In the tubulointerstitial tissue, a number of […] 60 CD11b positive cells was considered as positive (+), or a case of CD11b^−CD2^+ macrophages dominantly increasing. Scoring of evaluation of tubulointerstitial lesions was as follows: + gets 1-point as a light lesion; ++ gets 2-point as a moderate lesion; and +++ gets3-point as a severe lesion. For glomerular lesions, when a proportion of lesioned glomeruli was decreased to not more than 40%, and for tubulointerstitial lesions, when a score of the lesions was not more than 4, it was considered as improved.
# For glomerular lesions, by counting glomeruli causing thickening of Bowman's capsule wall and glomerular hyalinosis, a proportion of glomeruli having lesions was calculated. For tubulointerstitial lesions, by qualifying hyperplasia of tubular basement membrane and interstitial fibrosis, levels of the lesions were represented.
# An in vivo biological test was carried out for the γ-lactone derivative according to the present invention using this model. Bulk powder of a test compound was dissolved in sterile physiological saline together with gum arabic, and concentrations of the test compound and gum arabic were adjusted to 30 mg/mL and 5% respectively. The preparation was administered orally or subcutaneously injected at the dose of 30 mg/kg or 3 mg/kg every day. The administration was conducted for the total 21 days of the obstructed period for 14 days and after release of the obstruction for 7 days.
# For test groups, a group administered single compound group, a group administered both compound group and a control group administered solution of gum arabic were set up and compared for renal functions and morphological evaluations, as well as numbers of ED1, CD5, CD11b positive cells by means of immunopathology.
# [2] = tested on: male SDT rats (spontaneously type II diabetes model), complete skin-excised wounds; experiment: Complete skin-excised model, wound healing; type: in vivo; details: SDT rat, 10 mg/kg subcutaneously every day
# Source text: Using male SDT rats of 28-30 weeks age, which were a spontaneously type II diabetes model, promoting effect on repair and regeneration in wound healing after complete skin excision were examined according to a partially modified method of Breitbout AS et al. (Ann Plast Surg 1999, 43: 632). That is, an animal was shaved at its back under anesthesia with ether, and skin in 2×2 cm size was excised together with panniculus carnosus in same size to make two complete skin-excised wounds per animal.
# Healings of the wounds were observed on the 1st day, 4th day, 7th day, 12h day, 15th day, 21st day and 28th day from the operation. An area of the wounds was obtained as the product of the average vertical length and the average horizontal length which were measured along with a direction of the longest part in the wound.
# A test compound was dissolved in sterile physiological saline together with gum arabic. Concentrations of the test compound and gum arabic were adjusted to 30 mg/mL and 5% respectively. The preparation was subcutaneously injected at the dose of 10 mg/kg every day. The administration was started on 6 days before the operation and continued to 28 days after the operation.
# [3] = 30 mg/kg subcutaneously every day for 21 days, one value per animal, 30 mg/kg
smiles,measurement,setting,value
"C[C@@H](OC(=O)[C@]1(Oc2ccc(F)cc2)CCC(=O)O1)c1ccc2ccccc2c1 [compound (I-1), (R)-1-naphthalen-2-ylethyl (S)-2-(4-fluorophenoxy)-5-oxotetrahydrofuran-2-carboxylate]",cases with increased regeneration-promoting CD11b^+CD2^+ macrophages to glomerular lesions,[1]; 30 mg/kg subcutaneously,two of four cases
same,cases with increased regeneration-promoting CD11b^−CD2^+ macrophages to tubulointerstitial lesions,[1]; 30 mg/kg subcutaneously,three of four cases
same,difference in serum creatinine,[1]; 30 mg/kg subcutaneously,no difference
same,pathological improvement of glomerular lesions (cases),[1]; 30 mg/kg subcutaneously,no glomerular lesion was improved
same,pathological improvement of tubulointerstitial lesions (cases),[1]; 30 mg/kg subcutaneously,three of four cases
same,Coincidence of two regeneration macrophages being positive,[1]; [3],Not coincident; also recorded: Coincident
same,Glomerular lesions: proportion of lesioned glomeruli (%),[1]; [3],29% and 39% and 57% and 67%
same,Number of regeneration CD11b^+CD2^+ macrophages to glomerular lesions: number of positive cells per glomerulus,[1]; [3],0.5 cells per glomerulus and 2.0 cells per glomerulus and 0.0 cells per glomerulus and 1.3 cells per glomerulus
same,Number of regeneration CD11b^−CD2^+ macrophages to tubulointerstitial lesions: number of positive cells (CD11b) in five fields of 200× magnification,[1]; [3],24 cells in five fields of 200× m and 140 cells in five fields of 200× m and 59 cells in five fields of 200× m and 41 cells in five fields of 200× m
same,"Regeneration CD11b^+CD2^+ macrophages to glomerular lesions, Determination: increase = +",[1]; [3],+ (a case of existing not less than one positive cell per glomerulus was considered as positive (+))
same,"Regeneration CD11b^−CD2^+ macrophages to tubulointerstitial lesions, Determination: increase +",[1]; [3],+ (a number of not more than 60 CD11b positive cells was considered as positive (+))
same,Serum creatinine,[1]; [3],3.0 mg/dL and 2.7 mg/dL and 2.8 mg/dL and 2.2 mg/dL
same,Tubulointerstitial lesions: level of lesions (quality),[1]; [3],7.0 and 4.0 and 3.0 (2×)
same,Excised wound area (cm^2),[2]; 1st day after complete skin excision,3.38 cm^2
same,Excised wound area (cm^2),[2]; 4th day after complete skin excision,2.10 cm^2
same,Excised wound area (cm^2),[2]; 7th day after complete skin excision,1.45* cm^2
same,Excised wound area (cm^2),[2]; 12th day after complete skin excision,0.56* cm^2
same,Excised wound area (cm^2),[2]; 15th day after complete skin excision,0.51 cm^2
same,Excised wound area (cm^2),[2]; 21st day after complete skin excision,0.40 cm^2
same,Crust formation/number of wound,[2]; 21st day after the operation,0/8
same,crust formation on the surface of repaired wounds (in words),[2]; 28th day,no crust formation occurred
same,Excised wound area (cm^2),[2]; 28th day after complete skin excision,0.18* cm^2
same,Crust formation/number of wound,[2]; 28th day after the operation,0/8
same,promoting effect on wound healing (in words),"[2]; versus the control group, 10 mg/kg","more promoting effect on wound healing at 7th day to 12th day after the operation; also recorded: in 28th day of healing period, it showed promoting effect on wound healing; also recorded: promoting effect on healing of dermis and epidermis including panniculus carnosus"
